Ends that are not written are not given here.
How the values were obtained:
HelaP4 cells = format: cell-based
Method: We therefore analyzed this peptide further, with respect to functional interference with HIV-1 replication. After fusion to a protein transduction domain, different amounts of the DDX3-INS1 peptide or a control peptide were transduced into HelaP4 cells 24 hours after infection with HIV-1Lai. HIV-1 infection was quantified 48–72 hours after infection by titering released HIV-1 in culture supernatants on Tzm-bl cells based on measuring the luciferase activity in the cell lysates. […] The DDX3-INS1 peptide was not toxic for the cells in the concentration range used (data not shown). Thus, binding of the peptide ligand to the DDX3 insertion, interferes with HIV-1 replication further providing evidence of an important functional role of the DDX3 insertion not only for enzymatic functions, but also for HIV-1 replication.

[1] = ATPase activity assay ([γ-32P]ATP hydrolysis, TLC), steady-state kinetics; format: biochemical
Method: (§1) The ATPase activity was determined, as previously described, by directly monitoring [γ-^32P] ATP hydrolysis by thin-layer chromatography (TLC). ATP (3000 Ci/mmol) as tracer, plus 1 mM of cold ATP, unless otherwise stated, and nucleic acids as indicated. Samples were incubated for 5 minutes at 25°C and dotted onto TLC sheets of polyethylenimine cellulose. The products were separated by ascending chromatography with 0.5 M KH2PO4 (pH 3.4). The intensities of the radioactive bands corresponding to ATP and Pi were quantified by densitometric scanning with PhosphoImager. For the stimulation of the ATPase activity, the ssDNA oligonucleotide oligo(dT)20 or the ssRNA oligonucleotide oligo (rU)20 were used. Time-course experiments were performed under the conditions described above. Samples were taken at different time points and processed as described above.
ATPase reactions were performed as described, in the presence of increasing amounts of nucleic acids and variable ATP concentrations. […] The relative -fold increase in the ATPase velocities 1−(vDNA/v) as a function of the nucleic acid concentrations was fitted to the hyperbolic relationship: [drawing 2] (2) where vNA is the apparent velocity of the reaction in the presence of nucleic acid, v is the velocity in its absence, KD is the apparent affinity for the nucleic acid and [NA] is the concentration of the nucleic acid substrate. The symbol KD is used, instead of Km, solely to reflect the fact that the NA is not a reactant (i.e. it is not converted into products) but only a cofactor of the reaction, without implying any assumption on the nature of the microscopic rates contributing to the KD value itself.

[2] = ATPase time-course (burst kinetics); format: biochemical
Method: as §1
Variation of the ATPase reaction as a function of time was fitted to the mixed-exponential equation: [drawing 3] (3) where [P] is the concentration of products (pmols) at any given time point, t is time, Aburst is the burst amplitude, k burst is the rate of the exponential phase, k ss is the rate of the steady-state linear phase.

[3] = test system: 18/36mer ds RNA oligonucleotide; test: RNA helicase assay; format: biochemical
Excerpt: (§2) The helicase activity of DDX3wt and mutant forms was monitored by measuring the conversion of a double stranded (ds) DNA or RNA (labelled at the 5′-end of one strand with a 6-FAM fluorescent group) into single stranded (ss) nucleic acid. For the RNA helicase assay, a 18/36mer ds RNA oligonucleotide with both 3′ and 5′-protruding ss ends was used. For the DNA helicase assay, three different dsDNA substrates were used, all of them composed of the same 18mer oligonucleotide 5′-FAM labelled and three different 38 mer oligonucleotides with the sequence complementary to the 18 mer at different positions. Annealing of the 18 mer to each of the 38 mer generated the different DNA substrates shown in Fig. 5 A. A final concentration of 20 nM RNA or DNA substrate was used in the experiments, unless otherwise stated. The amounts of the different DDX3 proteins are indicated in the respective Figures.
(§3) Reactions were performed in 50 mM TrisHCl pH 7.5, 1 mM DTT, 0.2 mg/ml BSA, 5% glycerol and 1 mM ATP, 10 mM MgCl2 at 37°C degrees for 10′ and stopped by adding EDTA 50 mM pH 8. Products were separated on a native 7% PAGE […] at 5 W in TBE buffer with 0.1% SDS at 4°C for 2 hours for RNA substrates, 4 hours for DNA substrates. Substrates and products were quantified by laser scanning densitometry (Thyphoon-TRIO, GE Healthcare). For trap-assays, the enzyme and the RNA substrate were incubated on ice for 4 min, in the absence of ATP. Reactions were started by addition of ATP and a 50-fold molar excess (1 µM) of r(A)40 trap RNA oligonucleotide, followed by incubation at 37°C for the indicated times.
Variation of the amount of unwound RNA substrate as a function of time was fitted to a simple exponential equation: [drawing 4] (4) where MAX is the amount of unwound substrate extrapolated at infinite time, kuw is the apparent rate of unwinding.

[4] = test system: partially dsDNA substrates (18/38-mer); test: DNA helicase assay; format: biochemical
Excerpt: as §2, §3

DDX3wt = target: T1, DDX3wt (Homo sapiens, UniProt O00571); test: Inhibition of DDX3wt ATPase activity; format: biochemical; details: increasing amounts of inhibitor
T1 construct: DDX3wt (aa 1–662), and the N-DDX3 (aa 1–427); N-terminal peptide of ~3 kDa comprising 6xHis (pTrcHisA) (N); seven additional amino acids KQGCFGG (C); made in house; host or cells: E. coli BL-21
T1 sequence (O00571 whole entry, the tested form may be a part): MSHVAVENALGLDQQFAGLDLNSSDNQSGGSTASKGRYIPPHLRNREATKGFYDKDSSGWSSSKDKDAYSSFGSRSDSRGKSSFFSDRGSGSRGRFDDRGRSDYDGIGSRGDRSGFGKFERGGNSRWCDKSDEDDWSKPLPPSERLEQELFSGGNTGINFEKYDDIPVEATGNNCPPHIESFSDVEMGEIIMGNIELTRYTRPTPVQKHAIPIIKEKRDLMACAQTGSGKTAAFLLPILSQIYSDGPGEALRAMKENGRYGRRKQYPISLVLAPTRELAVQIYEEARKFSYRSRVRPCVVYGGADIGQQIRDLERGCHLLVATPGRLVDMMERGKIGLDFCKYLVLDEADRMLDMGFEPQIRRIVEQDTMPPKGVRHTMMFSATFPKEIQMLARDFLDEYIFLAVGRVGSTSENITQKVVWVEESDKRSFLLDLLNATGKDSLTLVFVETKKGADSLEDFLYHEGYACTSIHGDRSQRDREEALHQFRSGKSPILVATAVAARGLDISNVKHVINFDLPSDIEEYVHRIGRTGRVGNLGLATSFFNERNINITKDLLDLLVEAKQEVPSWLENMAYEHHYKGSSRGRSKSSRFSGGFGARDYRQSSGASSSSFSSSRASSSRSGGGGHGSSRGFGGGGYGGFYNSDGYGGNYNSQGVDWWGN
Method: as §1

N-DDX3 = target: T2, N-DDX3 (Homo sapiens, UniProt O00571); test: Inhibition of N-DDX3 ATPase activity; format: biochemical; details: increasing amounts of inhibitor
T2 construct: The N-DDX3 mutant (aa 1–427) was obtained using the forward primer; N-terminal peptide of ~3 kDa comprising 6xHis (pTrcHisA) (N); seven additional amino acids KQGCFGG (C); made in house; host or cells: E. coli BL-21
T2 sequence (O00571 1-427): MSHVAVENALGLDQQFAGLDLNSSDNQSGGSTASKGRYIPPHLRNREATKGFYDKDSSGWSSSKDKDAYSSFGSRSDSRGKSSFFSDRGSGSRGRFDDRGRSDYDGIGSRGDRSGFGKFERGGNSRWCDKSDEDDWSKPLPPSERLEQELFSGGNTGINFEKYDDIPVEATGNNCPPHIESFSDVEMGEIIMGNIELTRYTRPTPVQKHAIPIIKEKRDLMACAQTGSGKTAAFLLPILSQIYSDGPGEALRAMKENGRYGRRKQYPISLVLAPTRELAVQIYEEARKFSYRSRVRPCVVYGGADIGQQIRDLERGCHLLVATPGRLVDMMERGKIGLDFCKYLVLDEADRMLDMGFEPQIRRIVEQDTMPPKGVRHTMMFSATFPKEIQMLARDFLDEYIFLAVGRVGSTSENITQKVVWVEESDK
Method: as §1

[5] = relative to absence of nucleic acid

Compound: SDVPTQVGGRRRRRRRRR [DDX3-INS1]
- Toxicity for the cells (HelaP4 cells): not toxic

Compound: DDX3wt: recombinant full length human DDX3 (aa 1–662), N-terminal his-tagged, expressed in E. coli
- k cat ([1]; +DNA, oligo(dT)20): 0.0633 ± 0.0033 s⁻¹
- k cat ([1]; +RNA, oligo(rU)20): 0.0533 ± 0.0017 s⁻¹
- Intrinsic ability to hydrolyze ATP ([1]; absence of nucleic acid): detectable ATPase activity
- k cat ([1]; absence of nucleic acids): 0.0267 ± 0.0033 s⁻¹
- Increase of catalytic efficiency (kcat/Km) by DNA [1, 5]: 3.2 fold
- Increase of catalytic efficiency (kcat/Km) by RNA [1, 5]: 2.8 fold
- Aburst ([2]; +DNA, oligo(dT)20): 0.9 ± 0.1 µM
- k burst ([2]; +DNA, oligo(dT)20): 9.5 ± 0.8 min⁻¹
- k ss ([2]; +DNA, oligo(dT)20): 0.4 ± 0.03 min⁻¹
- Aburst ([2]; +RNA, oligo(rU)20): 0.75 ± 0.1 µM
- k burst ([2]; +RNA, oligo(rU)20): 7 ± 0.8 min⁻¹
- k ss ([2]; +RNA, oligo(rU)20): 0.4 ± 0.09 min⁻¹
- Aburst ([2]; absence of nucleic acids): 0.25 ± 0.05 µM
- k burst ([2]; absence of nucleic acids): 4.1 ± 0.7 min⁻¹
- k ss ([2]; absence of nucleic acids): 0.3 ± 0.08 min⁻¹
- Reduction of RNA unwinding rate by addition of the trap [3]: about 2 fold
- k uw (apparent rate of RNA unwinding) ([3]; +trap, 50-fold molar excess r(A)40 ssRNA, single-turnover): 0.05 ± 0.01 min⁻¹
- k uw (apparent rate of RNA unwinding) ([3]; without trap): 0.11 ± 0.02 min⁻¹
- DNA unwinding ([4]; DNA duplex with a single 5′-protruding end, 18/[5′]-38 mer): able to unwind
- DNA unwinding ([4]; DNA duplex with both 5′- and 3′-protruding ssDNA ends, 18/[5′-3′]-38 mer): able to unwind
- DNA unwinding ([4]; substrate with a 3′-ss DNA region, 18/[3′]-38 mer): not

Compound: O=C(CN1C(=O)/C(=C/c2cccc(Br)c2)SC1=S)Nc1ccccc1O [FE15]
- Inhibition of ATP hydrolysis (DDX3wt): inhibited
- Inhibition of ATP hydrolysis (N-DDX3): inhibited

Reference: publication PMC3093405, “A Motif Unique to the Human Dead-Box Protein DDX3 Is Important for Nucleic Acid Binding, ATP Hydrolysis, RNA/DNA Unwinding and HIV-1 Replication” (PLoS ONE, 2011)
